What all share (type): cell-based
The subject of experiment [1] is HCT-116. As to the kind of experiment: Inhibition of TNF-alpha-induced Nuclear factor-kappa-B dependent transcriptional activity in human HCT116 cells assessed normalized inhibitory ratio of at 10 uM for 12 hrs by NF-kappaB cis-acting luciferase reporter gene assay relative to untreated control.
Experiment [2] concerns HCT-116. As to the kind of experiment: Inhibition of TNF-alpha-induced Nuclear factor-kappa-B-mediated CXCL1 expression in human HCT116 cells pretreated for 30 mins before stimulation with TNFalpha for 15 mins by RT-PCR.
The subject of experiment [3] is HCT-116. The experiment can be described thus: Inhibition of TNF-alpha-induced nuclear translocation of Nuclear factor-kappa-B in human HCT116 cells pretreated for 30 mins before stimulation with TNFalpha for 30 mins by Western blot.
In experiment [4] the test system is HCT-116. As to the kind of experiment: Inhibition of TNF-alpha-induced Nuclear factor-kappa-B-mediated XIAP expression in human HCT116 cells pretreated for 30 mins before stimulation with TNFalpha for 15 mins by RT-PCR.
Experiment [5] has as its system HCT-116. The experiment can be described thus: Inhibition of TNF-alpha-induced Nuclear factor-kappa-B-mediated CIAP2 expression in human HCT116 cells pretreated for 30 mins before stimulation with TNFalpha for 15 mins by RT-PCR.

Our source for the Ratio and inhibition values is ChEMBL document CHEMBL1268875, “Isoflavone derivatives inhibit NF-κB-dependent transcriptional activity” (Bioorg Med Chem Lett, 2010).

The source made the active and inactive calls. The calls are words filed in the database; no cut-off is given here.

As for `COc1cc(C)c2c(=O)c(-c3ccccc3)coc2c1`, in the experiment with HCT-116 [1], the Ratio is 0.67.
On the same count and under the same terms, next, `COc1ccc(-c2coc3cc(OC)c(OC)cc3c2=O)cc1OC`: 0.4; `COc1ccc2c(=O)c(-c3ccccc3)coc2c1C`: 0.23; `COc1ccc(-c2coc3cc(O)ccc3c2=O)cc1OC`: 2.53.
On to `Cc1cc2occ(-c3ccccc3)c(=O)c2cc1Cl`, for which the Ratio in the experiment with HCT-116 [1] worked out at 0.32.
On the same count and under the same terms, next, `COc1ccc2c(=O)c(-c3ccc(OC)c(OC)c3)coc2c1`: 0.45.
The same measure, in the same setting: under `Cc1cc2occ(-c3ccc(Cl)cc3Cl)c(=O)c2cc1Cl` stands 0.27; under `COc1ccc2c(=O)c(-c3ccccc3)coc2c1`, 0.36.
For the compound `COc1cc(OC)c2c(=O)c(-c3ccc(OC)c(OC)c3)coc2c1`, the inhibition entry with HCT-116 [2], with HCT-116 [3], with HCT-116 [4] and with HCT-116 [5] was “Active” throughout. Also, the Ratio in the experiment with HCT-116 [1] is 0.19.
Regarding `COc1cc(O)c2c(=O)c(-c3ccc(O)cc3)coc2c1`, in the experiment with HCT-116 [1], the Ratio amounted to 0.34.
Still for that read-out and setting: next, `COc1ccc(-c2coc3cc(O)c(OC)cc3c2=O)cc1`: 2.37; `COc1cc2occ(-c3ccccc3Cl)c(=O)c2cc1Cl`: 0.54.
The same measure, in the same setting: next, `COc1ccc(-c2coc3c(OC)c(OC)ccc3c2=O)cc1`: 0.95; `COc1cc(OC)c2c(=O)c(-c3ccc(Cl)cc3)coc2c1`: 0.61; `COc1ccc(-c2coc3cc(OC)c(Cl)cc3c2=O)cc1O`: 0.54.
Still for that read-out and setting: next, `COc1cc(OC)c2c(=O)c(-c3cccc(Cl)c3)coc2c1`: 0.63.
In the case of `COc1ccc2c(=O)c(-c3ccc(Cl)cc3)coc2c1C`, the Ratio in the experiment with HCT-116 [1] is 0.63.
The same measure, in the same setting: next, `O=c1c(-c2ccc(O)cc2)coc2c(O)c(O)ccc12`: 1.22; `COc1ccc(-c2coc3c(C)c(OC)ccc3c2=O)cc1`: 0.62.
Still for that read-out and setting: next, `COc1cc(OC)c2c(=O)c(-c3ccc(Br)cc3)coc2c1`: 0.25; `Cc1c(O)ccc2c(=O)c(-c3ccc(Cl)cc3)coc12`: 1.04.
For `COc1cc(OC)c2c(=O)c(-c3ccccc3Cl)coc2c1`, the Ratio with HCT-116 [1] was found to be 0.54.
The same measure, in the same setting: next, `Cc1c(O)ccc2c(=O)c(-c3ccccc3)coc12`: 0.45.
